Patent US7422848B2, “Hepatitis-B viral variants with reduced susceptibility to nucleoside analogs and uses thereof” (priority 2005, dated 2008)
Entries after “also recorded” stand apart in the source; their conditions may differ.

Key:
[1] = tested on: wild type HBV; assay: HBV replication in transiently transfected Huh7 cell lines (Real-time PCR), wild type HBV; conditions: supernatant at end of 5th day
[2] = tested on: HBV; assay: Example 3: second patient, antiviral therapy of HBV infection (HBV DNA, ALT, AST); format: in vivo, human; conditions: lamivudine (Zeffix) 100 mg/day; before breakthrough
Excerpt: A person is a patient with HBsAg (+) and Anti-HBe (+).

[3] = tested on: HBV; assay: Published clinical studies of ADF (Perrillo 2004, Peters 2004, Angus 2003, Yang 2003); conditions: ADF added to the therapy; implied from cited studies
[4] = tested on: HBV; conditions: human, in vivo; cited from earlier work
[5] = tested on: HBV; assay: Case study patient: antiviral therapy of chronic HBV infection (HBV DNA, ALT); format: in vivo, human; conditions: patient after clinical breakthrough, IFN 9 MU/TIW 6 months, Hepsera 10 mg/day 14 months
Protocol: HBV DNA levels were measured by using a commercial liquid-hybridization assay (Digene, Maryland, US), with the lower limit of detection of this assay being 5 pg/mL of viral DNA.
Lamuvidine was continued after the development of clinical breakthrough. […] Hepsera™ (Adefovir dipovoxil) 10 mg/day was added to lamivudine monotherapy at 44th month of initial antiviral therapy and 3 months after stopping IFN.
Blood counts and liver-function tests (alanine and aspartate aminotransferases) were done according to routine biochemical procedures (Olympus AU 2700 autoanalyzer, Japan).

[6] = 0.1 μM antiviral, 3 independent experiments
[7] = 1 μM antiviral, 3 independent experiments

Compound | HBV replication in transiently transfected Huh7 cell lines (Mean log HBV copy number ± standard deviation) [1, 6] | HBV replication in transiently transfected Huh7 cell lines (Mean log HBV copy number ± standard deviation) [1, 7] | HBV DNA levels following lamivudine treatment [2] | HBV replication in transiently transfected Huh7 cell lines (Mean log HBV copy number ± standard deviation) ([1]; 10 μM antiviral, n.d. = not detectable) | Patients not achieving a significant reduction in HBV DNA levels [3] | Adefovir treated patients revealing the resistance mutation rtN236T [4] | ALT and HBV replication response when added to ongoing lamivudine (in words) [5] | ALT and HBV replication response when added to ongoing lamivudine (in words) ([5]; listed as Hepsera™)
Nc1ccn([C@@H]2CS[C@H](CO)O2)c(=O)n1 [3TC, β-L-(−)-2′,3′-dideoxy-3′-thiacytidine] | 4.1 ± 0.8 log HBV copy number | 2.32 ± 1.62 log HBV copy number | less than 5 pg/mL |  |  |  |  | 
Nc1ncnc2c1ncn2CCOCP(=O)(O)O [Adefovir, 9-(2-phosphonyl-methoxyethyl)-adenine] | 1.15 ± 1.62 log HBV copy number | 0.32 ± 0.58 log HBV copy number |  | no detectable HBV DNA | 8-15% | 1.7-2.5% |  | 
CC(C)(C)C(=O)OCOP(=O)(COCCn1cnc2c(N)ncnc21)OCOC(=O)C(C)(C)C [adefovir dipivoxil] |  |  |  |  |  |  | neither suppressed HBV replication nor decreased serum ALT levels | neither inhibition of HBV replication nor ALT normalization occurred; also recorded: did not lead to inhibition of HBV replication and ALT normalisation
